From ChEMBL document CHEMBL1154257, “Prediction of telomerase inhibitory activity for acridinic derivatives based on chemical structure” (Eur J Med Chem, 2009)

Target: Telomerase reverse transcriptase (Homo sapiens, UniProt O14746)
Assay: Inhibition of telomerase in human A2780 cells by TRAP assay
Assay type: cell-based

Telomerase reverse transcriptase, sequence (O14746 whole entry): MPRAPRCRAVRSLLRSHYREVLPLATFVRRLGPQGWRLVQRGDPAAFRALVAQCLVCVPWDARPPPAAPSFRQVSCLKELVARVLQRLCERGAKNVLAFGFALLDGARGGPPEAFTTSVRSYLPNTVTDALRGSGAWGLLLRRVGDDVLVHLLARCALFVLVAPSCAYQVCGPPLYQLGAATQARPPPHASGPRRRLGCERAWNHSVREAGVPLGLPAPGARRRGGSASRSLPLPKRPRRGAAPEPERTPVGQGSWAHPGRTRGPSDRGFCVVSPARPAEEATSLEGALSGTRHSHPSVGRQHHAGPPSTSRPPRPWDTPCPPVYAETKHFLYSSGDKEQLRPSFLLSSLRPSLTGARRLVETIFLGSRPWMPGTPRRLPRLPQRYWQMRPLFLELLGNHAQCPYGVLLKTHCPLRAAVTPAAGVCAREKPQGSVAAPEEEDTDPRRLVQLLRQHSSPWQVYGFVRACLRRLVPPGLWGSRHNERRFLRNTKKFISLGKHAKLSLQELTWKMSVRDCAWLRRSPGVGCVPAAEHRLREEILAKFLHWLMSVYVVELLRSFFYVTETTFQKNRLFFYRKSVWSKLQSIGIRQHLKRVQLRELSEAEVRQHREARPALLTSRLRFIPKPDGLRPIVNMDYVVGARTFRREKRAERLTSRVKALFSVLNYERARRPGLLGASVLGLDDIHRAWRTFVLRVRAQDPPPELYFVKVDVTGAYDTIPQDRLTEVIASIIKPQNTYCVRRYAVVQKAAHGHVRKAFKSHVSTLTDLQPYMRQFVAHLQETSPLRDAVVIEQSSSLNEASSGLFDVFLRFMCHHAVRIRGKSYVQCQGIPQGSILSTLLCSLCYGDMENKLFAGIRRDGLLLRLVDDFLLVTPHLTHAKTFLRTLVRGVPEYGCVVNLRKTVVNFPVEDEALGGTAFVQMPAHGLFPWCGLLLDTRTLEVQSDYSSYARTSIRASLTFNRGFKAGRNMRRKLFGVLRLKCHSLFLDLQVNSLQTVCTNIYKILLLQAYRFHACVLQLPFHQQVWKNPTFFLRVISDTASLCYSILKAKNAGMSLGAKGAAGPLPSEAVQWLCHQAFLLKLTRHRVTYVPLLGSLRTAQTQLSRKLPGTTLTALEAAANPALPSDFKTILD

O=C(CC[N+]1([O-])CCCCC1)Nc1ccc2c(=O)c3ccc(NC(=O)CC[N+]4([O-])CCCCC4)cc3[nH]c2c1
IC50: 49 µM

CN(C)CCC(=O)Nc1ccc2nc3ccc(NC(=O)CCN(C)C)cc3c(O)c2c1
IC50: 0.6 µM

CC1(C)CC2CN(CCC(=O)Nc3ccc4cc5ccc(NC(=O)CCN6CC7CC(C)(C)CC(C)(C7)C6)cc5nc4c3)CC(C)(C2)C1
IC50: > 50 µM

CC1CCCCN1CCC(=O)Nc1ccc2nc3ccc(NC(=O)CCN4CCCCC4C)cc3c(O)c2c1 (stereo unspecified)
IC50: 1.5 µM

Nc1ccc(Nc2c3cc(NC(=O)CCN4CCCC4)ccc3nc3ccc(NC(=O)CCN4CCCC4)cc23)cc1
IC50: 0.2 µM

O=C(CCN1CCCC1)Nc1ccc2c(=O)c3ccc(NC(=O)CCN4CCCC4)cc3[nH]c2c1
IC50: 8.1 µM

C[N+]1(CCC(=O)Nc2ccc3nc4ccc(NC(=O)CC[N+]5(C)CCNCC5)cc4c(O)c3c2)CCNCC1
IC50: 1.9 µM

CN(C)CCNc1c2cc(NC(=O)CCN3CCCC3)ccc2nc2ccc(NC(=O)CCN3CCCC3)cc12
IC50: 0.57 µM

CCN(CC)CCC(=O)Nc1ccc2c(O)c3cc(NC(=O)CCN(CC)CC)ccc3nc2c1
IC50: 0.7 µM

CN(C)c1cccc(Nc2c3cc(NC(=O)CCN4CCCC4)ccc3nc3ccc(NC(=O)CCN4CCCC4)cc23)c1
IC50: 0.6 µM

CN(C)CCCNc1c2ccc(NC(=O)CCN3CCCC3)cc2nc2ccc(NC(=O)CCN3CCCC3)cc12
IC50: 0.08 µM

CN(C)CCNc1c2ccc(NC(=O)CCN3CCCC3)cc2nc2ccc(NC(=O)CCN3CCCC3)cc12
IC50: 0.27 µM

O=C(CCN1CCC(O)CC1)Nc1ccc2c(O)c3ccc(NC(=O)CCN4CCC(O)CC4)cc3nc2c1
IC50: 1.7 µM

CCC1CCCCN1CCC(=O)Nc1ccc2c(=O)c3ccc(NC(=O)CCN4CCCCC4CC)cc3[nH]c2c1 (stereo unspecified)
IC50: 2.3 µM

O=C(CCN1CCCC1)Nc1ccc2c(Nc3ccccc3)c3cc(NC(=O)CCN4CCCC4)ccc3nc2c1
IC50: 1.33 µM

Nc1ccccc1Nc1c2cc(NC(=O)CCN3CCCC3)ccc2nc2ccc(NC(=O)CCN3CCCC3)cc12
IC50: 0.17 µM

O=C(CCN1CCCC1)Nc1ccc2c(NC3CCCCC3)c3cc(NC(=O)CCN4CCCC4)ccc3nc2c1
IC50: 0.21 µM

CN(C)c1ccc(Nc2c3ccc(NC(=O)CCN4CCCC4)cc3nc3ccc(NC(=O)CCN4CCCC4)cc23)cc1
IC50: 0.17 µM

CCN(CC)CCNC(=O)CCCCC(=O)Nc1ccc(Nc2c3ccc(NC(=O)CCN4CCCC4)cc3nc3cc(NC(=O)CCN4CCCC4)ccc23)cc1
IC50: 0.098 µM

CCN(CC)CCC(=O)Nc1ccc2c(=O)c3ccc(NC(=O)CCN(CC)CC)cc3[nH]c2c1
IC50: 2.7 µM

O=C(CCN1CCCC1)Nc1ccc2nc3ccc(NC(=O)CCN4CCCC4)cc3c(Nc3ccccc3)c2c1
IC50: 1.29 µM

CCN(CC)CCCCCCNC(=O)CCCCC(=O)Nc1ccc(Nc2c3ccc(NC(=O)CCN4CCCC4)cc3nc3cc(NC(=O)CCN4CCCC4)ccc23)cc1
IC50: 0.08 µM

O=C(CCN1CCC(O)CC1)Nc1ccc2c(O)c3cc(NC(=O)CCN4CCC(O)CC4)ccc3nc2c1
IC50: 0.2 µM

O=C(CCN1CCCCC1)Nc1ccc2nc3ccc(NC(=O)CCN4CCCCC4)cc3c(O)c2c1
IC50: 1.9 µM

COc1ccc(Nc2c3cc(NC(=O)CCN4CCCC4)ccc3nc3ccc(NC(=O)CCN4CCCC4)cc23)cc1
IC50: 0.46 µM

O=C(CCN1CCCC1)Nc1ccc2nc3ccc(NC(=O)CCN4CCCC4)cc3c(O)c2c1
IC50: 5.8 µM

Nc1ccc(Nc2c3ccc(NC(=O)CCN4CCCC4)cc3nc3cc(NC(=O)CCN4CCCC4)ccc23)cc1
IC50: 0.074 µM

CC1CCCCN1CCC(=O)Nc1ccc2c(=O)c3ccc(NC(=O)CCN4CCCCC4C)cc3[nH]c2c1 (stereo unspecified)
IC50: 2.3 µM

CC1CCN(CCC(=O)Nc2ccc3c(O)c4cc(NC(=O)CCN5CCC(C)CC5)ccc4nc3c2)CC1
IC50: 0.2 µM

CN(C)c1ccc(Nc2c3ccc(NC(=O)CCN4CCCC4)cc3nc3cc(NC(=O)CCN4CCCC4)ccc23)cc1
IC50: 0.1 µM

Nc1ccccc1Nc1c2ccc(NC(=O)CCN3CCCC3)cc2nc2ccc(NC(=O)CCN3CCCC3)cc12
IC50: 0.11 µM

CN(C)c1ccc(Nc2c3cc(NC(=O)CCN4CCCC4)ccc3nc3ccc(NC(=O)CCN4CCCC4)cc23)cc1
IC50: 0.5 µM

Nc1cccc(Nc2c3ccc(NC(=O)CCN4CCCC4)cc3nc3ccc(NC(=O)CCN4CCCC4)cc23)c1
IC50: 0.21 µM

O=C(CCN1CCCCC1)Nc1ccc2c(O)c3cc(NC(=O)CCN4CCCCC4)ccc3nc2c1
IC50: 0.4 µM

O=C(CCN1CCCC1)Nc1ccc2nc3ccc(NC(=O)CCN4CCCC4)cc3c(Nc3ccccc3O)c2c1
IC50: 1.03 µM

O=C(CCN1CCC(O)CC1)Nc1ccc2nc3ccc(NC(=O)CCN4CCC(O)CC4)cc3c(O)c2c1
IC50: 2.3 µM

O=C(CCN1CCCCC1CCO)Nc1ccc2c(=O)c3cc(NC(=O)CCN4CCCCC4CCO)ccc3[nH]c2c1 (stereo unspecified)
IC50: 0.2 µM

CC1CCN(CCC(=O)Nc2ccc3c(=O)c4ccc(NC(=O)CCN5CCC(C)CC5)cc4[nH]c3c2)CC1
IC50: 1.7 µM

COc1cccc(Nc2c3cc(NC(=O)CCN4CCCC4)ccc3nc3ccc(NC(=O)CCN4CCCC4)cc23)c1
IC50: 2.73 µM

Nc1cccc(Nc2c3cc(NC(=O)CCN4CCCC4)ccc3nc3ccc(NC(=O)CCN4CCCC4)cc23)c1
IC50: 1.09 µM

O=C(CCCCC(=O)N1CCCC1)Nc1ccc(Nc2c3ccc(NC(=O)CCN4CCCC4)cc3nc3cc(NC(=O)CCN4CCCC4)ccc23)cc1
IC50: 0.318 µM
